# Source: US20250163104A1, “MACROCYCLIC IMMUNOMODULATORS” (priority 2021, published 2025)
# Where a SMILES comes first, the peptide text is derived from it. Bridges are numbered along the chain shown (N, C = ends). [ ]: non-standard residue; d: D form. The star is where a group is joined. ξ: configuration not given here. Phe(3,4-Cl2) = N[C@@H](Cc1ccc(Cl)c(Cl)c1)C(=O)O; Phe(3-CF3) = N[C@@H](Cc1cccc(C(F)(F)F)c1)C(=O)O; Ala(morpholin-4-yl) = N[C@@H](CN1CCOCC1)C(=O)O; Phe(4-COOH) = N[C@@H](Cc1ccc(C(=O)O)cc1)C(=O)O; Bip = N[C@@H](Cc1ccc(-c2ccccc2)cc1)C(=O)O; Phe(3-OMe) = COc1cccc(C[C@H](N)C(=O)O)c1; Phe(3-Me) = Cc1cccc(C[C@H](N)C(=O)O)c1; Val(3-OH) = CC(C)(O)[C@H](N)C(=O)O; Hyp = O=C(O)[C@@H]1C[C@@H](O)CN1; aIle = CC[C@@H](C)[C@H](N)C(=O)O; 4Pal = N[C@@H](Cc1ccncc1)C(=O)O; Cha = N[C@@H](CC1CCCCC1)C(=O)O; Cit = NC(=O)NCCC[C@H](N)C(=O)O; Ile(3ξ) = CCC(C)[C@H](N)C(=O)O; dCha = N[C@H](CC1CCCCC1)C(=O)O; Carboxymethyl = O=C(O)C*; Orn = NCCC[C@H](N)C(=O)O; Dab = NCC[C@H](N)C(=O)O; Dap = NC[C@H](N)C(=O)O
# Target: T1, human PD-1 / PD-L1-Ig binding on Jurkat cell line over-expressing human PD-1 (Jurkat-PD-1) (Homo sapiens, UniProt Q15116)
# T1 construct: expressed in transfected cells; host or cells: Jurkat
# T1 sequence (Q15116 25-288): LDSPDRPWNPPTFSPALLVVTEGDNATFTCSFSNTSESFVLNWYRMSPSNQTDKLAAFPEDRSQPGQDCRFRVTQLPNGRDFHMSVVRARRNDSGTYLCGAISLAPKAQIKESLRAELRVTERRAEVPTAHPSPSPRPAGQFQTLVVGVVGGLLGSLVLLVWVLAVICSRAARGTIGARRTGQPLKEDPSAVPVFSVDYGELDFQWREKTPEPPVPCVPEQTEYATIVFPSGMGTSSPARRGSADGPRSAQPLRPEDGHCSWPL
# Test: Jurkat-PD-1 Cell Binding High-Content Screening Assay (CBA)
# Assay type: cell-based
# Conditions: Jurkat-PD-1 cells, PE-labeled PD-L1-Ig 20 nM final; read-out: Jurkat HPD1_PDL1 IC50
# How it was run: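 Jurkat cells over-expressing human PD-1, in DMEM/10% FCS, pre-incubated with compound 2 h at 37° C. PE-labeled human PD-L1-Ig (20 nM final) added for 1 h; cells fixed in paraformaldehyde with Hoechst 33342 nuclear stain, washed, and bound fluorescence quantified by high-content imaging.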
row,Compound,IC50 [nM]
1,CC[C@H](C)[C@@H]1NC(=O)[C@H](Cc2ccc(-c3ccccc3)cc2)NC(=O)[C@H](C(C)C)NC(=O)[C@H](Cc2cccc(C)c2)NC(=O)[C@H](CC(=O)O)NC(=O)[C@H](Cc2ccc(C(=O)O)cc2)NC(=O)[C@H](Cc2ccncc2)NC(=O)CSC[C@@H](C(=O)N[C@@H](C)C(N)=O)NC(=O)[C@H]([C@@H](C)O)NC(=O)[C@H](C(C)C)NC(=O)[C@H](CC(C)C)NC(=O)[C@H](CCN)NC(=O)[C@@H](CC(C)C)NC(=O)[C@H](CCCN)NC1=O [Compound 1180],8.9
2,CC(C)C[C@@H]1NC(=O)[C@H](Cc2c[nH]c3ccccc23)NC(=O)[C@H](CC(=O)O)NC(=O)[C@H](Cc2ccc(OCC(=O)O)cc2)NC(=O)[C@H](CN)NC(=O)CSC[C@@H](C(=O)NCC(N)=O)NC(=O)[C@H](CO)NC(=O)[C@H](C(C)C)NC(=O)[C@H](CC(C)C)NC(=O)[C@H](CCN)NC(=O)[C@@H](CC(C)C)NC(=O)[C@H](CCCN)NC(=O)[C@H](C(C)C)NC(=O)[C@H](Cc2ccc(-c3ccccc3)cc2)NC1=O [Compound 1257] ({CH2CO}-[Dap]Y(Carboxymethyl)DWL[Bip]V[Orn][dL][Dab]LVSCG-NH2; thioether N-14),5.6
3,CC[C@@H](C)[C@@H]1NC(=O)[C@H](Cc2ccc(-c3ccccc3)cc2)NC(=O)[C@H](C(C)C)NC(=O)[C@H](Cc2c[nH]c3ccccc23)NC(=O)[C@H](CC(=O)O)NC(=O)[C@H](Cc2ccncc2)NC(=O)[C@H](Cc2ccc(OCC(=O)O)cc2)NC(=O)CSC[C@@H](C(=O)N[C@@H](C)C(N)=O)NC(=O)[C@H]([C@@H](C)O)NC(=O)[C@H](C(C)C)NC(=O)[C@H](CC2CCCCC2)NC(=O)[C@H](CCN)NC(=O)[C@@H](CC2CCCCC2)NC(=O)[C@H](CCCN)NC1=O [Compound 1629] ({CH2CO}-Y(Carboxymethyl)[4Pal]DWV[Bip][aIle][Orn][dCha][Dab][Cha]VTCA-NH2; thioether N-14),19.9
4,Cc1cccc(C[C@@H]2NC(=O)[C@H](CC(=O)O)NC(=O)[C@H](Cc3ccncc3)NC(=O)[C@H](Cc3ccc(OCC(=O)O)cc3)NC(=O)CSC[C@@H](C(=O)N[C@@H](C)C(N)=O)NC(=O)[C@H]([C@@H](C)O)NC(=O)[C@H](C(C)C)NC(=O)[C@H](CC(C)C)NC(=O)[C@H](CCN)NC(=O)[C@@H](CC(C)C)NC(=O)[C@H](CCCN)NC(=O)[C@H](CCCNC(N)=O)NC(=O)[C@H](Cc3ccc(-c4ccccc4)cc3)NC(=O)[C@H](C(C)C)NC2=O)c1 [Compound 1324] ({CH2CO}-Y(Carboxymethyl)[4Pal]D[Phe(3-Me)]V[Bip][Cit][Orn][dL][Dab]LVTCA-NH2; thioether N-14),15.5
5,CC[C@H](C)[C@@H]1NC(=O)[C@H](Cc2ccc(-c3ccccc3)cc2)NC(=O)[C@H](C(C)C)NC(=O)[C@H](Cc2c[nH]c3ccccc23)NC(=O)[C@H](CC(=O)O)NC(=O)[C@H](Cc2ccc(C(=O)O)cc2)NC(=O)[C@H](Cc2ccc(OCC(=O)O)cc2)NC(=O)CSC[C@@H](C(=O)N[C@@H](C)C(N)=O)NC(=O)[C@H]([C@@H](C)O)NC(=O)[C@H](C(C)C)NC(=O)[C@H](CC(C)C)NC(=O)[C@H](CCN)NC(=O)[C@@H](CC(C)C)NC(=O)[C@H](CCCN)NC1=O [Compound 1250] ({CH2CO}-Y(Carboxymethyl)[Phe(4-COOH)]DWV[Bip]I[Orn][dL][Dab]LVTCA-NH2; thioether N-14),6.9
6,CC(C)C[C@H]1NC(=O)[C@H](CCCN)NC(=O)[C@H](CN)NC(=O)[C@H](Cc2ccc(-c3ccccc3)cc2)NC(=O)[C@H](C(C)C)NC(=O)[C@H](Cc2c[nH]c3ccccc23)NC(=O)[C@H](CC(=O)O)NC(=O)[C@H](Cc2ccncc2)NC(=O)[C@H](CN)NC(=O)CSC[C@@H](C(=O)N[C@@H](C)C(N)=O)NC(=O)[C@H]([C@@H](C)O)NC(=O)[C@H](C(C)C)NC(=O)[C@H](CC2CCCCC2)NC(=O)[C@H](CCN)NC1=O [Compound 1388],26
7,CCC(C)[C@@H]1NC(=O)[C@H](Cc2ccc(-c3ccccc3)cc2)NC(=O)[C@H](C(C)C)NC(=O)[C@H](Cc2c[nH]c3ccccc23)NC(=O)[C@H](CC(=O)O)NC(=O)[C@H](Cc2ccncc2)NC(=O)[C@H](Cc2ccncc2)NC(=O)CSC[C@@H](C(=O)N[C@@H](C)C(N)=O)NC(=O)[C@H]([C@@H](C)O)NC(=O)[C@H](C(C)C)NC(=O)[C@H](CC2CCCCC2)NC(=O)[C@H](CCN)NC(=O)[C@@H](CC(C)C)NC(=O)[C@H](CCCN)NC1=O (stereo partly drawn) [Compound 2238] ({CH2CO}-[4Pal][4Pal]DWV[Bip][Ile(3ξ)][Orn][dL][Dab][Cha]VTCA-NH2; thioether N-14),18.2
8,CC(C)C[C@@H]1NC(=O)[C@H](CCN)NC(=O)[C@@H](CC(C)C)NC(=O)[C@H](CCCCN)NC(=O)[C@H](CCCNC(N)=O)NC(=O)[C@H](Cc2ccc(-c3ccccc3)cc2)NC(=O)[C@H](C(C)C)NC(=O)[C@H](Cc2c[nH]c3ccccc23)NC(=O)[C@H](CC(=O)O)NC(=O)[C@H](Cc2ccc(O)cc2)NC(=O)[C@H](CC(N)=O)NC(=O)CSC[C@@H](C(=O)NCC(N)=O)NC(=O)[C@H]([C@@H](C)O)NC(=O)[C@H](C(C)C)NC1=O [Compound 1116] ({CH2CO}-NYDWV[Bip][Cit]K[dL][Dab]LVTCG-NH2; thioether N-14),38.5
9,CC[C@@H](C)[C@@H]1NC(=O)[C@H](Cc2ccc(-c3ccccc3)cc2)NC(=O)[C@H](C(C)C)NC(=O)[C@H](Cc2cccc(C)c2)NC(=O)[C@H](CC(=O)O)NC(=O)[C@H](Cc2ccc(O)cc2)NC(=O)[C@H](CC(N)=O)NC(=O)CSC[C@@H](C(N)=O)NC(=O)[C@H]([C@@H](C)O)NC(=O)[C@H](C(C)C)NC(=O)[C@H](CC(C)C)NC(=O)[C@H](CCN)NC(=O)[C@@H](CC(C)C)NC(=O)[C@H](CCCN)NC1=O [Compound 1657] ({CH2CO}-NYD[Phe(3-Me)]V[Bip][aIle][Orn][dL][Dab]LVTC-NH2; thioether N-14),59.9

# The next lines start with the values.
row,IC50 [nM],Compound
1,40.4,CC(C)C[C@@H]1NC(=O)[C@H](CCN)NC(=O)[C@@H](CC(C)C)NC(=O)[C@H](CCN)NC(=O)[C@H](CCC(=O)O)NC(=O)[C@H](Cc2ccc(-c3ccccc3)cc2)NC(=O)[C@H](C(C)C)NC(=O)[C@H](Cc2c[nH]c3ccccc23)NC(=O)[C@H](CC(=O)O)NC(=O)[C@H](Cc2ccc(C(=O)O)cc2)NC(=O)[C@H](Cc2ccc(OCC(=O)O)cc2)NC(=O)CSC[C@@H](C(=O)N[C@@H](C)C(N)=O)NC(=O)[C@H](CO)NC(=O)[C@H](C(C)C)NC1=O [Compound 1269] ({CH2CO}-Y(Carboxymethyl)[Phe(4-COOH)]DWV[Bip]E[Dab][dL][Dab]LVSCA-NH2; thioether N-14)
2,5.8,COc1cccc(C[C@@H]2NC(=O)[C@H](CC(=O)O)NC(=O)[C@H](Cc3ccc(C(=O)O)cc3)NC(=O)[C@H](Cc3ccncc3)NC(=O)CSC[C@@H](C(=O)N[C@@H](C)C(N)=O)NC(=O)[C@H]([C@@H](C)O)NC(=O)[C@H](C(C)C)NC(=O)[C@H](CC(C)C)NC(=O)[C@H](CCN)NC(=O)[C@@H](CC(C)C)NC(=O)[C@H](CCCN)NC(=O)[C@H](CCCNC(N)=O)NC(=O)[C@H](Cc3ccc(-c4ccccc4)cc3)NC(=O)[C@H](C(C)C)NC2=O)c1 [Compound 1179] ({CH2CO}-[4Pal][Phe(4-COOH)]D[Phe(3-OMe)]V[Bip][Cit][Orn][dL][Dab]LVTCA-NH2; thioether N-14)
3,2.3,"CC(C)C[C@H]1NC(=O)[C@H](CCCN)NC(=O)[C@H](Cc2ccc(C(=O)O)cc2)NC(=O)[C@H](Cc2ccc(-c3ccccc3)cc2)NC(=O)[C@H](Cc2ccc(Cl)c(Cl)c2)NC(=O)[C@H](Cc2cccc(C(F)(F)F)c2)NC(=O)[C@H](CC(=O)O)NC(=O)[C@H](Cc2ccc(C(=O)O)cc2)NC(=O)[C@H](CN2CCOCC2)NC(=O)CSC[C@@H](C(=O)N[C@@H](CCN)C(N)=O)NC(=O)[C@H](CCC(=O)O)NC(=O)[C@H](C(C)C)NC(=O)[C@H](CC2CCCCC2)NC(=O)[C@H](CCN)NC1=O [Example 2745] ({CH2CO}-[Ala(morpholin-4-yl)][Phe(4-COOH)]D[Phe(3-CF3)][Phe(3,4-Cl2)][Bip][Phe(4-COOH)][Orn][dL][Dab][Cha]VEC[Dab]-NH2; thioether N-14)"
4,9.8,Cc1cccc(C[C@@H]2NC(=O)[C@H](CC(=O)O)NC(=O)[C@H](Cc3ccc(C(=O)O)cc3)NC(=O)[C@H](CN)NC(=O)CSC[C@@H](C(=O)N[C@@H](C)C(N)=O)NC(=O)[C@H]([C@@H](C)O)NC(=O)[C@H](C(C)C)NC(=O)[C@H](CC3CCCCC3)NC(=O)[C@H](CCN)NC(=O)[C@@H](CC(C)C)NC(=O)[C@H](CCCN)NC(=O)[C@H](CCCNC(N)=O)NC(=O)[C@H](Cc3ccc(-c4ccccc4)cc3)NC(=O)[C@H](C(C)C)NC2=O)c1 [Compound 1202]
5,20.7,CCCC[C@@H]1NC(=O)[C@H](Cc2ccc(-c3ccccc3)cc2)NC(=O)[C@H](C(C)C)NC(=O)[C@H](Cc2cccc(C)c2)NC(=O)[C@H](CC(=O)O)NC(=O)[C@H](Cc2ccc(C(=O)O)cc2)NC(=O)[C@H](Cc2ccncc2)NC(=O)CSC[C@@H](C(=O)N[C@@H](C)C(N)=O)NC(=O)[C@H]([C@@H](C)O)NC(=O)[C@H](C(C)C)NC(=O)[C@H](CC2CCCCC2)NC(=O)[C@H](CCN)NC(=O)[C@@H](CC(C)C)NC(=O)[C@H](CCCN)NC1=O [Compound 1613]
6,356,Cc1cccc(C[C@@H]2NC(=O)[C@H](CC(=O)O)NC(=O)[C@H](Cc3ccc(OCC(=O)O)cc3)NC(=O)[C@@H]3C[C@@H](O)CN3C(=O)CSC[C@@H](C(=O)N[C@@H](CCN)C(N)=O)NC(=O)[C@H](CO)NC(=O)[C@H](C(C)(C)O)NC(=O)[C@H](CC3CCCCC3)NC(=O)[C@H](CCN)NC(=O)[C@@H](CC(C)C)NC(=O)[C@H](CCCN)NC(=O)[C@H](Cc3ccc(OCC(=O)O)cc3)NC(=O)[C@H](Cc3ccc(-c4ccccc4)cc3)NC(=O)[C@H](Cc3ccc(OCC(=O)O)cc3)NC2=O)c1 [Compound 2059] ({CH2CO}-[Hyp]Y(Carboxymethyl)D[Phe(3-Me)]Y(Carboxymethyl)[Bip]Y(Carboxymethyl)[Orn][dL][Dab][Cha][Val(3-OH)]SC[Dab]-NH2; thioether N-14)
